Results published in US20160355530A1, “HEPATITIS C INHIBITORS AND USES THEREOF” (AbbVie Inc., priority 2010, published 2016).
pEC50, pIC50: −log10 of the molar value. Where two headings read alike, the source gives them in different places.

Legend:
[1] = tested on: chimeric replicon with genotype 2b NS5B; test: microbe, parasite or virus in culture; type: cell-based, HCV genotype 2b; details: Hepatitis C virus, read-out: 2b chimera 5% FBS EC50
[2] = tested on: chimeric replicon with 2a-J6CF-derived NS5B; test: microbe, parasite or virus in culture; type: cell-based, HCV genotype 2a; details: Hepatitis C virus, read-out: 2a chimera 5% FBS EC50
[3] = molecular target: T1, HCV NS5B polymerase 1a-H77 (Hepatitis C virus genotype 1a, UniProt P27958); test: biochemical; design: species or system HCV genotype 1a; details: enzyme, strain 1a H77; read-out: HCV Polymerase Strain 1a H77 IC50
T1 construct: six-histidine tag; made in house; host or cells: E. coli
Outline: (§1)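 Recombinant NS5B (residues 1–570, His-tagged, E. coli-expressed) copied 5 nM of a 2.1 kb HCV 1b negative-strand 3′-end RNA template with 20 μM CTP, 20 μM ATP and 0.284 μM [3H]UTP for 3 h at 30 °C. Spermine-precipitated RNA was filter-captured and counted, and IC50 was fitted by nonlinear regression.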

[4] = molecular target: T2, HCV NS5B polymerase 1a-H77-C316Y (Hepatitis C virus genotype 1a, UniProt P27958, C2736Y); test: biochemical; design: species or system HCV genotype 1a
T2 construct: six-histidine tag; made in house; host or cells: E. coli
Outline: as §1

[5] = tested on: HCV NS5B polymerase 1a-H77-C316Y; test: biochemical; design: species or system HCV genotype 1a; details: ratio of enzyme IC50s, 1a H77-C316Y / 1a H77
Outline: as §1

[6] = molecular target: T3, HCV NS5B polymerase 1b BK strain (Hepatitis C virus genotype 1b, UniProt P26663); test: HCV NS5B polymerase enzymatic inhibition assay, strain 1b BK; type: biochemical; details: enzyme, strain 1b BK; read-out: HCV Polymerase Strain 1b BK IC50
T3 construct: six-histidine tag; made in house; host or cells: E. coli
Outline: as §1

[7] = tested on: HCV 1b-BB7 subgenomic replicon; test: microbe, parasite or virus in culture; type: cell-based, HCV genotype 1b; details: Hepatitis C virus, stable replicon
[8] = tested on: chimeric replicon with genotype 4a NS5B; test: microbe, parasite or virus in culture; type: cell-based, HCV genotype 4a; details: Hepatitis C virus, read-out: 4a chimera 5% FBS EC50
[9] = tested on: HCV 1a-H77 subgenomic replicon; test: microbe, parasite or virus in culture; type: cell-based, HCV genotype 1a; details: Hepatitis C virus, stable replicon
[10] = tested on: chimeric replicon with genotype 3a NS5B; test: microbe, parasite or virus in culture; type: cell-based, HCV genotype 3a; details: Hepatitis C virus, read-out: 3a chimera 5% FBS EC50
[11] = strain 1b BB7, 5% FBS + 40% human plasma, read-out: 1b BB7 5% FBS + 40% Human Plasma EC50
[12] = strain 1b BB7, 5% FBS, no human plasma, read-out: 1b BB7 5% FBS EC50
[13] = strain 1b BB7, 5% FBS, read-out: 1b BB7 5% FBS EC50
[14] = 5% FBS, absence of human plasma, read-out: Stable Replicon 1a H77 5% FBS EC50
[15] = strain 1a H77, 5% FBS + 40% human plasma, read-out: 1a H77 5% FBS + 40% Human Plasma EC50
[16] = strain 1a H77, 5% FBS, no human plasma, read-out: 1a H77 5% FBS EC50
[17] = strain 1a H77, 5% FBS, read-out: 1a H77 5% FBS EC50

T2 sequence (P27958 2421-2990 C2736Y): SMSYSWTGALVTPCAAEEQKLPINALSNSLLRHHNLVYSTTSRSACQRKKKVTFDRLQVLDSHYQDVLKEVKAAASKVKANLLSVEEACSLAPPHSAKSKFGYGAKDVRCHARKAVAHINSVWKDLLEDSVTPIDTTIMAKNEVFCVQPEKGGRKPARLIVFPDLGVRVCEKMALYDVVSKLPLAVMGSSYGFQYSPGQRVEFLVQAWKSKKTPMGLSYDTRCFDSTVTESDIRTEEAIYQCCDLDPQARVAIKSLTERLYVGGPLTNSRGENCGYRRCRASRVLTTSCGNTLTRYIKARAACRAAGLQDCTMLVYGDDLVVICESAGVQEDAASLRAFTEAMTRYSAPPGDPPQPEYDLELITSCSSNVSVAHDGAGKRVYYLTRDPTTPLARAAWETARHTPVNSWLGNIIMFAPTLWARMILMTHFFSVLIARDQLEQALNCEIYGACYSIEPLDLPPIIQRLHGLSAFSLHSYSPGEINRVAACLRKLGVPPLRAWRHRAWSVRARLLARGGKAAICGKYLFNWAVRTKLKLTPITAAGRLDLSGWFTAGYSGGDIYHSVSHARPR
T1 sequence (P27958 2421-2990): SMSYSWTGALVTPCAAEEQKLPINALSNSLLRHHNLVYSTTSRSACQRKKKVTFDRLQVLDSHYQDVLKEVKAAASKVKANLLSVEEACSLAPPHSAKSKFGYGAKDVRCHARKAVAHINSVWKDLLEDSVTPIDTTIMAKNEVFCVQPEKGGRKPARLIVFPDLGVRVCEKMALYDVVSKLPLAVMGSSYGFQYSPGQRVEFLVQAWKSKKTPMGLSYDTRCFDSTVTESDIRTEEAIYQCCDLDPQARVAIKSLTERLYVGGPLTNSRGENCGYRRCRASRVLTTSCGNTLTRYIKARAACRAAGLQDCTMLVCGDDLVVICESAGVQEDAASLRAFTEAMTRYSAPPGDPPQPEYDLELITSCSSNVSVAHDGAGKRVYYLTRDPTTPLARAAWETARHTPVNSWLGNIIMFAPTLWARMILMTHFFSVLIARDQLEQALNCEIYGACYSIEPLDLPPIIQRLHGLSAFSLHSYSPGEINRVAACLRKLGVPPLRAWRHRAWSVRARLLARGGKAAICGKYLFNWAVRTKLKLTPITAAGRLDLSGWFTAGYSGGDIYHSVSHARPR
T3 sequence (P26663 2420-2989): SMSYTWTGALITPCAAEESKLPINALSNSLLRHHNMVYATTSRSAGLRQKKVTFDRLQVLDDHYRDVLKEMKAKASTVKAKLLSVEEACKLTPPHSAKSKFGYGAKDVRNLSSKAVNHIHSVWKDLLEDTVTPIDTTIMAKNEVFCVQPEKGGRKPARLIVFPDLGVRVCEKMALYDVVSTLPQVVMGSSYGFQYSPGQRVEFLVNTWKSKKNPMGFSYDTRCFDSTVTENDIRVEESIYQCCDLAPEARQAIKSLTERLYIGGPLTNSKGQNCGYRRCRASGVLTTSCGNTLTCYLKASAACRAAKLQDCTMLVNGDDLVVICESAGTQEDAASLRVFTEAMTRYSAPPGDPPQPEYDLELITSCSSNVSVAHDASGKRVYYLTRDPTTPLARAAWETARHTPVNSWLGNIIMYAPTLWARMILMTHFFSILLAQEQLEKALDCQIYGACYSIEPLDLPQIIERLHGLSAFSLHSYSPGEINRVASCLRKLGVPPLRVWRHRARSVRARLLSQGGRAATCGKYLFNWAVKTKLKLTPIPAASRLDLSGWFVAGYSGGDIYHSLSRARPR

Row | Compound | pEC50 [1] | pEC50 [2] | pIC50 [3] | pIC50 [4] | C316Y/1a Fold Resistance [5] | pIC50 [6] | pEC50 [7, 11] | pEC50 [7, 12] | pEC50 [7, 13] | pEC50 [8] | pEC50 [9, 14] | pEC50 [9, 15] | pEC50 [9, 16] | pEC50 [9, 17] | pEC50 [10]
1 | CN(C)CCCN(c1cc2oc(-c3ccc(F)cc3)c(C3=NOCCN3)c2cc1C1CC1)S(C)(=O)=O [Example 127, N-[5-cyclopropyl-3-(5,6-dihydro-4H-1,2,4-oxadiazin-3-yl)-2-(4-fluorophenyl)-1-benzofuran-6-yl]-N-[3-(dimethylamino)propyl]methanesulfonamide] | 6.51 | 6.46 | 7.60 | 6.18 | 26 fold | 6.52 | 7.05 | 7.68 | 7.68 | 6.09 | 7.19 | 6.91 | 7.19 | 7.19 | 7.24
2 | CS(=O)(=O)N(CCC/C(N)=N/O)c1cc2oc(-c3ccc(F)cc3)c(C3=NOCCN3)c2cc1C1CC1 [Example 181, (1Z)-4-{[5-cyclopropyl-3-(5,6-dihydro-4H-1,2,4-oxadiazin-3-yl)-2-(4-fluorophenyl)-1-benzofuran-6-yl](methylsulfonyl)amino}-N′-hydroxybutanimidamide] | 6.26 | 6.11 | 8.00 | 6.99 | 10 fold | 7.25 | 6.15 | 7.34 | 7.34 | 6.23 | 7.25 | 6.21 | 7.25 | 7.25 | 6.97
3 | CC(C)=CCN(c1cc2oc(-c3ccc(F)cc3)c(-c3ncc[nH]3)c2cc1C1CC1)S(C)(=O)=O [Example 54, N-[5-cyclopropyl-2-(4-fluorophenyl)-3-(1H-imidazol-2-yl)-1-benzofuran-6-yl]-N-(3-methylbut-2-en-1-yl)methanesulfonamide] | 6.22 | 6.57 | 8.35 | 6.72 | 43 fold | 6.53 | 6.13 | 7.19 | 7.19 | 6.20 | 7.05 | 6.03 | 7.05 | 7.05 | 7.29
4 | C[S+]([O-])CCCN(c1cc2oc(-c3ccc(F)cc3)c(C3=NOCCN3)c2cc1C1CC1)S(C)(=O)=O (stereo not drawn) [Example 139, N-[5-cyclopropyl-3-(5,6-dihydro-4H-1,2,4-oxadiazin-3-yl)-2-(4-fluorophenyl)-1-benzofuran-6-yl]-N-[3-(methylsulfinyl)propyl]methanesulfonamide] | 6.10 | 6.00 | 8.11 | 7.05 | 11 fold | 8.05 | 6.02 | 7.17 | 7.17 | 6.24 | 7.23 | 6.19 | 7.23 | 7.23 | 6.99
5 | CS(=O)(=O)N(CC1CCOCC1)c1cc2oc(-c3ccc(F)cc3)c(-c3ncc[nH]3)c2cc1C1CC1 [Example 38, N-[5-cyclopropyl-2-(4-fluorophenyl)-3-(1H-imidazol-2-yl)-1-benzofuran-6-yl]-N-(tetrahydro-2H-pyran-4-ylmethyl)methanesulfonamide] | 7.09 | 7.05 | 8.30 | 6.83 | 30 fold | 7.48 | 6.61 | 7.90 | 7.90 | 6.79 | 7.99 | 6.93 | 7.99 | 7.99 | 7.60
6 | CCOP(=O)(CCCN(c1cc2oc(-c3ccc(F)cc3)c(C3=NOCCN3)c2cc1C1CC1)S(C)(=O)=O)OCC [Example 116, diethyl (3-{[5-cyclopropyl-3-(5,6-dihydro-4H-1,2,4-oxadiazin-3-yl)-2-(4-fluorophenyl)-1-benzofuran-6-yl](methylsulfonyl)amino}propyl)phosphonate] | 6.40 | 6.27 | 8.12 | 7.20 | 8 fold | 7.46 | 6.67 | 7.49 | 7.49 | 6.61 | 7.44 | 6.80 | 7.44 | 7.44 | 7.08
7 | CS(=O)(=O)N(CCCc1noc(=S)[nH]1)c1cc2oc(-c3ccc(F)cc3)c(-c3ncc[nH]3)c2cc1C1CC1 [Example 177, N-[5-cyclopropyl-2-(4-fluorophenyl)-3-(1H-imidazol-2-yl)-1-benzofuran-6-yl]-N-[3-(5-thioxo-4,5-dihydro-1,2,4-oxadiazol-3-yl)propyl]methanesulfonamide] | 6.22 | 6.37 | 8.40 | 7.42 | 10 fold | 7.44 | 6.34 | 7.64 | 7.64 | 6.40 | 7.49 | 6.28 | 7.49 | 7.49 | 7.52
8 | C=CCN(c1cc2oc(-c3ccc(F)cc3)c(-c3ncc[nH]3)c2cc1C1CC1)S(C)(=O)=O [Example 57, N-allyl-N-[5-cyclopropyl-2-(4-fluorophenyl)-3-(1H-imidazol-2-yl)-1-benzofuran-6-yl]methanesulfonamide] | 7.14 | 7.29 | 8.52 | 6.63 | 77 fold | 7.96 | 7.16 | 7.75 | 7.75 | 6.86 | 7.45 | 6.51 | 7.45 | 7.45 | 8.04
9 | CS(=O)(=O)N(CCCCCO)c1cc2oc(-c3ccc(F)cc3)c(C3=NOCCN3)c2cc1C1CC1 [Example 134, N-[5-cyclopropyl-3-(5,6-dihydro-4H-1,2,4-oxadiazin-3-yl)-2-(4-fluorophenyl)-1-benzofuran-6-yl]-N-(5-hydroxypentyl)methanesulfonamide] | 7.16 | 7.08 | 8.10 | 7.38 | 5 fold | 7.09 | 7.03 | 8.05 | 8.05 | 7.28 | 8.19 | 7.16 | 8.19 | 8.19 | 7.70
10 | CS(=O)(=O)N(CCN1CCCC1)c1cc2oc(-c3ccc(F)cc3)c(C3=NOCCN3)c2cc1C1CC1 [Example 128, N-[5-cyclopropyl-3-(5,6-dihydro-4H-1,2,4-oxadiazin-3-yl)-2-(4-fluorophenyl)-1-benzofuran-6-yl]-N-[2-(pyrrolidin-1-yl)ethyl]methanesulfonamide] | 6.08 | 6.16 | 7.34 | 6.00 | 22 fold | 6.18 | 6.57 | 7.36 | 7.36 | < 6.00 | 6.79 | 6.42 | 6.79 | 6.79 | 6.67
11 | COCCCN(c1cc2oc(-c3ccc(F)cc3)c(-c3ncc[nH]3)c2cc1C1CC1)S(C)(=O)=O [Example 69, N-[5-cyclopropyl-2-(4-fluorophenyl)-3-(1H-imidazol-2-yl)-1-benzofuran-6-yl]-N-(3-methoxypropyl)methanesulfonamide] | 7.17 | 7.21 | 8.19 | 6.69 | 32 fold | 7.54 | 7.23 | 8.18 | 8.18 | 7.08 | 7.86 | 6.59 | 7.86 | 7.86 | 8.03
